According to US20070082017A1, “Lipid compositions and methods of use” (priority 2004, published 2007):

Test system: patients with dry eye symptoms
Assay: Clinical use of lipid composition applied to the eyelid margin for dry eye
Assay type: in vivo, human
Details: Patient No. 4; 1 percent non-preserved, two weeks
Source text: These patients were afflicted with meibomian gland dysfunction, various forms of dry eye syndrome, abnormal lids due to chemical burns, Stevens-Johnson syndrome, ocular pemphigoid, etc.

C[C@H]1C[C@@H]2[C@H]([C@@H](O)C[C@@]3(C)[C@H]2CC[C@]3(O)C(=O)CO)[C@@]2(C)C=CC(=O)C=C12 [methyl prednisolone]
improvement of symptoms: 50%
